Tests used:
Assay type in all cases: cell-based, Dickeya dadantii 3937 (Ech3937)
hrpN promoter = hrpN promoter activity, GFP reporter plasmid phrpN, flow cytometry (FACS)
hrpA promoter = hrpA promoter activity, GFP reporter plasmid phrpA, flow cytometry (FACS)
Method: (§1) FACS analysis of promoter activity of dspE, hrpA, hrpL, hrpN, and hrpS was carried out as described (Peng et al., 2006). Briefly, the wild-type Ech3937 and the mutant strains carrying the promoter reporter plasmid were grown on LB broth at 28° C. overnight and transferred to appropriate media. For FACS analysis, samples were collected by centrifugation, washed with 1× phosphate buffer saline (PBS) at 13,000 rpm for 1 min, and re-suspended in 1×PBS to ca 10^6 CFU/ml prior to being run in a FACS Calibur flow cytometer (BD Biosciences, CA). Three replicates were performed for each treatment.
To identify potential compounds that repress activation of T3SS, analogs and isomers of TCA and intermediates of salicylic acid and phenypropanoid biosynthesis pathways in plants were further screened for their effect on Ech3937 hrpA expression by flow cytometry (Table 9). A green fluorescent protein (GFP) reporter plasmid phrpA (pProbe-AT derivative with PCR fragment containing hrpA promoter region) was constructed, resulting in a transcriptional fusion of hrpA promoter with GFP gene. Bacterial cells containing phrpA plasmid were grown in MM supplemented with 0.1 mM of each compound. GFP intensity, which is a measurement of hrpA promoter activity, was measured by flow cytometry.

hrpL promoter = hrpL promoter activity, GFP reporter plasmid phrpL, flow cytometry (FACS); conditions: MM + 0.1 mM compound
Method: as §1
(§2) Since OCA and TCA induced the expression of hrpN, the effect of these two phenolic compounds on the expression of hrpA, hrpL, and hrpS was investigated further. […] GFP intensity was determined on gated populations of bacterial cells by flow cytometry and analyzed with the Cell Quest software (BD Biosciences, San Jose, Calif.). The lines labeled “1” stand for the GFP expression control base level of the Ech3937 containing pPROBE-AT vector; lines labeled “2” stand for the promoter activity of hrpS, hrpL, hrpA and hrpN in Ech3937 in MM; lines labeled “3” stand for the promoter activity of Ech3937 in MM supplemented with 0.1 mM OCA; lines labeled “4” stand for the promoter activity of hrpL mutant WPP96 in MM; lines labeled “5” stand for the promoter activity of hrpL mutant WPP96 in MM supplemented with 0.1 mM OCA. Values are representative of at least two experiments. […] Compared with MM alone, the average GFP fluorescence intensity of bacterial cells of Ech3937 (phrpA) was doubled when 0.1 mM of OCA and TCA were added to the medium (Table 4; FIG. 3). […] The mrp, whose protein product has an ATPase conserved domain (2e-06), was used as a reference gene in this study.

hrpS promoter = hrpS promoter activity, GFP reporter plasmid phrpS, flow cytometry (FACS); conditions: MM + 0.1 mM compound
Method: as §1, §2

mrp promoter = assay: mrp (reference gene) promoter activity, GFP reporter pmrp, flow cytometry (FACS); conditions: MM + 0.1 mM compound
Method: as §1, §2

pPROBE-AT vector = assay: GFP expression control base level, pPROBE-AT vector, flow cytometry (FACS); conditions: MM + 0.1 mM compound, 12 h (Table 4)
Method: as §1, §2

rsmB mRNA = assay: qRT-PCR relative mRNA level of rsmB; conditions: Ech3937 in supplemented MM vs MM alone (normalized to 1)
Method: Bacterial strains were grown in MM. Total RNA from the bacterial cells was isolated by using the TRI reagent method (Sigma, Mo.) and treated with Turbo DNA-free DNase kits (Ambion, TX) as described (Peng et al., 2006). An iScript cDNA Synthesis Kit (Bio-Rad, CA) was used to synthesize cDNA from 0.5 μg of treated total RNA. The Real Master Mix (Eppendorf, Westbury, N.Y.) was used for qRT-PCR reaction to quantify the cDNA level of target genes in different samples. The rplU was used as the endogenous control for data analysis. qRT-PCR data were analyzed using Relative Expression Software Tool as described (Pfaffl, M. W., Horgan, G. W., and Dempfle, L. (2002) Relative expression software tool (REST) for group-wise comparison and statistical analysis of relative expression results in real-time PCR. Nucleic Acids Res 30:e36.).

Ech3937 = assay: Growth of Ech3937 in MM supplemented with compound; conditions: 0.05, 0.1 and 0.2 mM in MM (FIGS. 2A, 2B)
Description: Phenolic compounds constitute an important class of organic substances produced by plants. The phenolic compound SA is a signaling molecule that plays a role in host defenses. OCA and TCA are the biosynthetic precursors of SA and are also reported to induce the expression of defense-related genes in plants. OCA, TCA, and SA were examined to elucidate their effects on the expression of T3SS genes. The expression of the T3SS gene hrpN was examined in MM and MM supplemented with OCA, TCA, and SA, at concentrations of 0.05, 0.1, and 0.2 mM, respectively. FIGS. 2A and 2B show the promoter activities of hrpN in Dickeya dadantii 3937 (Ech3937) grown in MM and MM supplemented with 0.05, 0.1, and 0.2 mM OCA, TCA, and SA at 12 h (FIG. 2A) and 24 h (FIG. 2B) post-inoculation. GFP intensity was determined on gated populations of bacterial cells by flow cytometry and analyzed with the Cell Quest software (BD Biosciences, San Jose, Calif.). The growth of Ech3937 in MM supplemented with different concentrations of OCA, TCA and SA was recorded. Compared with MM alone, the average GFP fluorescence intensity of bacterial cells of Ech3937 (phrpN) was increased approximately 4-fold when 0.05 mM of OCA and TCA were added to the medium (FIGS. 2A, 2B).
The expression of the T3SS gene hrpA was further examined in MM and MM supplemented with PCA at concentrations of 0.001, 0.005, 0.01, 0.05 and 0.1 mM respectively. FIGS. 16A and 16B show the promoter activities of hrpA in Dickeya dadantii 3937 (Ech3937) grown in minimum medium (MM) and MM supplemented with different amount of p-coumaric acid (PCA) at 12 h (FIG. 16A) and 24 h (FIG. 16B) post-inoculation. GFP intensity was determined on gated populations of bacterial cells by flow cytometry and analyzed with the Cell Quest software (BD Biosciences, San Jose, Calif.). The growth of Ech3937 in MM supplemented with different concentrations of PCA was recorded. Compared with MM alone, the average GFP fluorescence intensity of bacterial cells of Ech3937 (phrpA) was reduced more than 4-fold when 0.05 and 0.1 mM of PCA were added to the medium (FIGS. 16A, 16B).

[1] = MM + 0.1 mM compound, 12 h (Table 4)
[2] = hrpL mutant WPP96, MM + 0.1 mM compound, 12 h (Table 4)
[3] = hrpL mutant WPP96, 12 h (Table 4)

O=C(O)/C=C/c1ccccc1 [TCA, t-cinnamic acid]
increase of average GFP fluorescence intensity of Ech3937 (phrpN) compared with MM alone (hrpN promoter; 0.05 mM compound added to MM, 12 h and 24 h (FIGS. 2A, 2B)): approximately 4 fold | induction of hrpN expression in Ech3937 and in hrpX (WPP67), hrpY (WPP92), hrpS (WPP90) mutants (hrpN promoter; 0.1 mM compound in MM, 12 h (FIG. 5)): induced the expression of hrpN in Ech3937, but not in hrpX, hrpY, and hrpS mutants | GFP Intensity of Ech3937 (phrpN) (hrpN promoter; MM + 0.2 μM compound, 12 h): 65.1 ± 6.8 | GFP Intensity of Ech3937 (phrpN) (hrpN promoter; MM + 0.2 μM compound, 24 h): 163 ± 25 | GFP Intensity of Ech3937 (phrpN) (hrpN promoter; MM + 0.5 μM compound, 12 h): 73.4 ± 4.2 | GFP Intensity of Ech3937 (phrpN) (hrpN promoter; MM + 0.5 μM compound, 24 h): 158 ± 20 | GFP Intensity of Ech3937 (phrpN) (hrpN promoter; MM + 5 μM compound, 12 h): 134 ± 5.6 | GFP Intensity of Ech3937 (phrpN) (hrpN promoter; MM + 5 μM compound, 24 h): 266 ± 14 | GFP Intensity of Ech3937 (phrpN) (hrpN promoter; MM + 10 μM compound, 12 h): 147 ± 18 | GFP Intensity of Ech3937 (phrpN) (hrpN promoter; MM + 10 μM compound, 24 h): 284 ± 12 | GFP intensity (Mean Fluorescence Intensity) of Ech3937 (phrpN) (hrpN promoter; [1]): 103 ± 1 | GFP intensity (Mean Fluorescence Intensity) of WPP96 (phrpN) (hrpN promoter; [2]): 3.3 ± 0 | average GFP fluorescence intensity of Ech3937 (phrpA) compared with MM alone (hrpA promoter; 0.1 mM compound, 12 h): doubled | expression of hrpA, GFP intensity (Mean Fluorescence Intensity), Ech3937 carrying phrpA (hrpA promoter; MM + 0.1 mM compound, 6 h (Table 9)): 22.3 ± 2.1 | GFP intensity (Mean Fluorescence Intensity) of Ech3937 (phrpA) (hrpA promoter; [1]): 78 ± 0 | expression of hrpA, GFP intensity (Mean Fluorescence Intensity), Ech3937 carrying phrpA (hrpA promoter; MM + 0.1 mM compound, 12 h (Table 9)): 133.9 ± 12.9 | expression of hrpA, GFP intensity (Mean Fluorescence Intensity), Ech3937 carrying phrpA (hrpA promoter; MM + 0.1 mM compound, 24 h (Table 9)): 203.7 ± 16.1 | GFP intensity (Mean Fluorescence Intensity) of WPP96 (phrpA) (hrpA promoter; [2]): 6.2 ± 0.6 | promoter activity of hrpL compared with MM alone (hrpL promoter; Ech3937, 12 h): slightly higher promoter activity | GFP intensity (Mean Fluorescence Intensity) of Ech3937 (phrpL) (hrpL promoter; 12 h (Table 4)): 19 ± 1 | GFP intensity (Mean Fluorescence Intensity) of WPP96 (phrpL) (hrpL promoter; [3]): 331 ± 27 | GFP intensity of Ech3937 (phrpS) compared with MM alone (hrpS promoter; 12 h): slightly lower GFP intensity | GFP intensity (Mean Fluorescence Intensity) of Ech3937 (phrpS) (hrpS promoter; 12 h (Table 4)): 54 ± 2 | GFP intensity (Mean Fluorescence Intensity) of WPP96 (phrpS) (hrpS promoter; [3]): 360 ± 16 | mrp expression in Ech3937 (pmrp) compared with MM (mrp promoter; 12 h): slightly higher mrp expression | GFP intensity (Mean Fluorescence Intensity) of Ech3937 (pmrp) (mrp promoter; reference gene, 12 h (Table 4)): 105 ± 0.3 | GFP intensity (Mean Fluorescence Intensity) of Ech3937 (pPROBE-AT) (pPROBE-AT vector): 1.9 ± 0 | rsmB mRNA relative expression ratio (rsmB mRNA): 1.58 | bacterial growth of Ech3937 in supplemented MM (Ech3937): No reduction of bacterial growth
